In patent publication US8778966B2, “Quinolinone derivatives as PARP and tank inhibitors” (Janssen Pharmaceutica, NV, priority 2007, dated 2014):
Where two headings read alike, the source gives them in different places.

Experiments:
Assay type in all cases: cell-based, human
HCT116 cells [1] = experiment: Mitotic arrest assay on HCT116 cells (phospho-histone H3 Ser10); conditions: lowest active dose; for Mitotic arrest HCT116 LAD: HCT116 cells, the values are: pLAD (−log M lowest active dose); for minimal effective concentration: Homo sapiens, HCT-116, HCT116 cells, read-out: Mitotic arrest HCT116 LAD (converted)
How it was run: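 Read-out is imaging of phospho-histone H3 Ser10 (Alexa Fluor 488) with Hoechst nuclear counting, after 6 h compound exposure at 37 °C, DMSO ≤0.1%. LAD is the lowest dose at which the blank-corrected value over SD exceeds 5; triplicates, low-count wells excluded.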

HCT116 cells [2] = experiment: Antiproliferative activity, Alamar Blue assay, HCT116 cells; set-up: key to HCT116 antiproliferative activity pIC50: pIC50 = -log IC50 (IC50: conc. reducing growth to 50% of control); conditions: for IC50: Homo sapiens, HCT-116, HCT116 cells, read-out: HCT116 antiproliferative activity pIC50 (converted)
How it was run: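 Readout is resazurin fluorescence (ex 540, em 590 nm) after a 4 h dye incubation at 37 °C, following 4-day compound treatment of HCT116 cells plated 24 h earlier. Results expressed as % viable cells versus untreated; pIC50 derived from probit-fitted IC50.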

PC-3 cells = experiment: Antiproliferative activity, Alamar Blue assay, PC-3 cells; conditions: for IC50: Homo sapiens, PC-3, PC3 cells, read-out: PC3 antiproliferative activity pIC50 (converted)
How it was run: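 Resazurin-based fluorescence (540 nm ex/590 nm em) measured after 4-day compound treatment plus 24 hrs dye incubation at 37° C. Cells plated at 4.5×10^3 cells/ml, adhered 24 hr first. pIC50 from probit-derived IC50 on % viable cells versus untreated, triplicate wells.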

Compound	Mitotic arrest HCT116 LAD (HCT116 cells [1])	HCT116 antiproliferative activity pIC50 (HCT116 cells [2]; HCT116 cells, Alamar Blue)	PC3 antiproliferative activity pIC50 (PC-3 cells; PC3 cells, Alamar Blue)	IC50 (HCT116 cells [2]; Alamar Blue) [nM]	minimal effective concentration (HCT116 cells [1]) [µM]	IC50 (PC-3 cells; Alamar Blue) [nM]	IC50 (HCT116 cells [2]) [nM]	IC50 (PC-3 cells) [nM]
CCc1cc2ccc(C(C)(C#N)Cc3cccc(C#N)n3)cc2[nH]c1=O (single isomer, unassigned) [Compound 206]	5							
CCc1cc2ccc(C(C)(C#N)Cc3cccc(C#N)n3)cc2[nH]c1=O (single isomer, unassigned) [Compound 207]	7	7.0	6.8					
CCc1cc2ccc([C@@](C)(C#N)Cc3cccc(N(C)C)c3)cc2[nH]c1=O (single isomer, unassigned) [Compound 258]				251	0.1	316		
CCc1cc2ccc([C@](C)(C#N)Cc3cccc(N(C)C)c3)cc2[nH]c1=O (single isomer, unassigned) [Compound 259]				10000	10	10000		
CCC[C@@](C#N)(Cc1ccccc1)c1ccc2cc(CC)c(=O)[nH]c2c1 (single isomer, unassigned) [Compound 263]				3160	1	5010		
CCC[C@](C#N)(Cc1ccccc1)c1ccc2cc(CC)c(=O)[nH]c2c1 (single isomer, unassigned) [Compound 264]				10000	10	10000		
CCc1cc2ccc([C@@](C)(C#N)Cc3cccc(C#N)c3)cc2[nH]c1=O (single isomer, unassigned) [Compound 268]				10000	10	10000		
CCc1cc2ccc([C@](C)(C#N)Cc3cccc(C#N)c3)cc2[nH]c1=O (single isomer, unassigned) [Compound 269]				200	0.1	398		
CCc1cc2ccc([C@](C)(C#N)C[C@@H]3Cc4cc(C)ccc4O3)cc2[nH]c1=O (single isomer, unassigned) [Compound 400]				10000	10	10000		
C#Cc1cccc(C[C@](C)(C#N)c2ccc3cc(CC)c(=O)[nH]c3c2)c1 [Compound 2]				10000	10	10000		
C#Cc1cccc(C[C@@](C)(C#N)c2ccc3cc(CC)c(=O)[nH]c3c2)c1 [Compound 3]				39.8	0.01	100		
CCc1cc2ccc(C(C#N)(CC)Cc3ccccc3)cc2[nH]c1=O (stereo not shown) [Compound 32]					1		2000	5010
COc1ccccc1-c1nc(CC(C)(C#N)c2ccc3cc(C)c(=O)[nH]c3c2)no1 (stereo not shown) [Compound 33]					1		794	2510
Cc1cc2ccc(C(C)(C#N)Cc3cccc(C#N)c3)cc2[nH]c1=O (stereo not shown) [Compound 34]					0.1		200	631
Cc1cc2ccc([C@@](C)(C#N)Cc3cccc(C#N)c3)cc2[nH]c1=O [Compound 35]					3.16		7940	> 10000
Cc1cc2ccc([C@](C)(C#N)Cc3cccc(C#N)c3)cc2[nH]c1=O [Compound 36]					0.1		50.1	200
Cc1cc2ccc(C(C)(C#N)Cc3cccc(Cl)c3)cc2[nH]c1=O (stereo not shown) [Compound 37]					0.1		316	398
CC(C)c1cc2ccc(C(C)(C#N)Cc3ccccc3)cc2[nH]c1=O (stereo not shown) [Compound 38]					3.16		> 10000	> 10000
CC(=O)c1cc2ccc(C(C)(C#N)Cc3ccccc3)cc2[nH]c1=O (stereo not shown) [Compound 39]					3.16		> 10000	> 10000
CCc1cc2ccc(C(C)(C#N)Cc3cccc(OC[C@@H](O)CO)c3)cc2[nH]c1=O (stereo partly shown) [Compound 56]				3160	3	6310		
CCc1cc2ccc(C(C)(C#N)Cc3cccc(CCC#N)c3)cc2[nH]c1=O (stereo not shown) [Compound 169]	6			5010		3160		
CCc1cc2ccc(C(C)(C#N)Cc3cccc(CNS(C)(=O)=O)c3)cc2[nH]c1=O (stereo not shown) [Compound 170]				5010	3	10000		
C=Cc1cccc(CC(C)(C#N)c2ccc3cc(CC)c(=O)[nH]c3c2)c1 (stereo not shown) [Compound 172]				501	0.3	631		
CCc1cc2cc(F)c(C(C)(C#N)Cc3cccc(C#N)c3)cc2[nH]c1=O (stereo not shown) [Compound 175]				631	0.3	1000		

Compound	Mitotic arrest HCT116 LAD (HCT116 cells [1])	HCT116 antiproliferative activity pIC50 (HCT116 cells [2]; HCT116 cells, Alamar Blue)	PC3 antiproliferative activity pIC50 (PC-3 cells; PC3 cells, Alamar Blue)	IC50 (HCT116 cells [2]; Alamar Blue) [nM]	minimal effective concentration (HCT116 cells [1]) [µM]	IC50 (PC-3 cells; Alamar Blue) [nM]	IC50 (HCT116 cells [2]) [nM]	IC50 (PC-3 cells) [nM]
CCc1c(C)c2ccc(C(C)(C#N)Cc3cccc(C#N)c3)cc2[nH]c1=O (stereo not shown) [Compound 181]				2510	0.3	3980		
CCc1cc2cc(OCCOC)c(C(C)(C#N)Cc3cccc(C#N)c3)cc2[nH]c1=O (stereo not shown) [Compound 182]				6310	10	5010		
CCc1cc2ccc(C(C)(C#N)Cc3cccc(C#CCO)c3)cc2[nH]c1=O (stereo not shown) [Compound 183]				63.1	0.1	316		
CCc1cc2ccc(C(F)(C#N)Cc3ccccc3)cc2[nH]c1=O (stereo not shown) [Compound 187]				3160	3	7940		
CCc1cc2ccc(C(C)(C#N)CN(C)Cc3ccccc3)cc2[nH]c1=O (stereo not shown) [Compound 189]				1260	1	3160		
CCc1cc2ccc(C(C)(C#N)C(C)c3ccccc3)cc2[nH]c1=O (stereo not shown) [Compound 198]				2000	0.3	2000		
CCc1cc2ccc([C@](C)(C#N)[C@@H](C)c3ccccc3)cc2[nH]c1=O [Compound 199]				10000	3	10000		
CCc1cc2ccc([C@](C)(C#N)[C@H](C)c3ccccc3)cc2[nH]c1=O [Compound 200]				1580	0.3	1000		
CCc1cc2ccc(C(C)(C#N)Cc3cccc(C#C[Si](C)(C)C)n3)cc2[nH]c1=O (stereo not shown) [Compound 210]				501	1	501		
C#Cc1cccc(CC(C)(C#N)c2ccc3cc(CC)c(=O)[nH]c3c2)n1 (stereo not shown) [Compound 211]				316	1	501		
CCc1cc2ccc(C(C)(C#N)Cc3cccc(N(C)C)n3)cc2[nH]c1=O (stereo not shown) [Compound 213]				501	0.3	501		
CCc1cc2ccc(C(C)(C#N)Cc3cccc(I)n3)cc2[nH]c1=O (stereo not shown) [Compound 214]				501	0.3	631		
CCOC(=O)c1cccc(CC(C)(C#N)c2ccc3cc(CC)c(=O)[nH]c3c2)n1 (stereo not shown) [Compound 215]				1580	1	6310		
CCc1cc2ccc(C(C)(C#N)Cc3cccc(COC)n3)cc2[nH]c1=O (stereo not shown) [Compound 216]				2000	1	10000		
CCc1cc2ccc(C(C)(C#N)Cc3cccc(OCCOC)n3)cc2[nH]c1=O (stereo not shown) [Compound 219]				5010	1	2510		
CCc1cc2ccc(C(C)(C#N)Cc3cccc(CN)n3)cc2[nH]c1=O (stereo not shown) [Compound 221]				1260	3	1000		
CCc1cc2ccc(C(C)(C#N)Cc3cccc(OCCO)c3)cc2[nH]c1=O (stereo not shown) [Compound 262]				251	0.3	501		
CCc1cc2ccc(C(C)(C#N)CCOc3cccc(C(F)(F)F)c3)cc2[nH]c1=O (stereo not shown) [Compound 274]				6310	1	3980		
CCc1cc2ccc(C(C)(C#N)Cc3cccc(CN)c3)cc2[nH]c1=O (stereo not shown) [Compound 290]				158	0.3	501		
CCc1cc2ccc(C(C)(C#N)Cc3cccc(/C=C/S(C)(=O)=O)c3)cc2[nH]c1=O (stereo not shown) [Compound 292]				501	0.1	501		
CCc1c(Cl)c2ccc(C(C)(C#N)Cc3cccc(C#N)c3)cc2[nH]c1=O (stereo not shown) [Compound 293]				794	0.3	6310		
CCc1cc2cc(OC)c(C(C)(C#N)Cc3ccccc3)cc2[nH]c1=O (stereo not shown) [Compound 294]				6310	3	10000		
CCc1cc2ccc(C(C)(C#N)Cc3cccc(C#CCOC)c3)cc2[nH]c1=O (stereo not shown) [Compound 297]				398	0.3	1000		
